# Experimental data as given in US8785459B2, “Quinazoline compounds as kinase inhibitors” (Development Center for Biotechnology, priority 2011, dated 2014).
# Legend:
# [1] = target: B-Raf (Homo sapiens (Human), UniProt P15056); experiment: Raf kinase assay (B-Raf), [33P] incorporation into MEK1(K97R); format: biochemical; settings: for inhibition at 1 µM: 1.0 μM compound, read-out: B-Raf inhibition at 1.0 μM
# Procedure, shortened: (§1)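 Recombinant C-Raf (2 ng) or B-Raf or B-Raf V600E (5 ng each) phosphorylated 500 ng MEK1(K97R) with 8 μM ATP plus [33P]ATP, pH 7.5, 30 min at 30 °C. Filter-captured 33P counted. IC50 from 3-fold compound dilutions run in duplicate.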
# [2] = target: B-Raf (V600E) (Homo sapiens (Human), UniProt P15056, V600E); experiment: Raf kinase assay (B-Raf (V600E)), [33P] incorporation into MEK1(K97R); format: biochemical
# Procedure, shortened: as §1
# [3] = target: C-Raf (Homo sapiens (Human), UniProt P04049); experiment: Raf kinase assay (C-Raf), [33P] incorporation into MEK1(K97R); format: biochemical
# Procedure, shortened: as §1
# [4] = test system: A549; experiment: Anti-proliferative activity, CellTiter-96 assay, A549; format: cell-based; settings: Homo sapiens, A549 cells, 72 hours incubation
# Method: (§2) Antiproliferative Activity
# (§3) The anti-proliferative activities of the compounds with formula (I) and formula (II) with respect to four human cancer cell lines (A549, A375, MDA-MB-231, and COLO205) were measured using the CellTiter™-96 assay kit (Promega) following the manufacturer's instructions. In brief, the cells were maintained in DMEM containing 10% FCS and incubated at 37° C. in 5% CO2 atmosphere. Cells were plated at a density of 2000 cells/well of a 96-well plate for 24 h, then treated with different concentrations of the compounds, and incubated for another 72 hours. At the end of the incubation, CellTiter™-96 Aqueous One Solution Reagent (Promega) was added and incubated for another 4.0 hours. Cell viability was determined by measuring absorbance at 490 nm using EMax® microplate reader (Molecular Devices). Data were processed and analyzed using GraphPad Prism version 4.
# [5] = test system: A375; experiment: Anti-proliferative activity, CellTiter-96 assay, A375; format: cell-based; settings: Homo sapiens, A-375, A375 cells, 72 hours incubation
# Method: as §2, §3
# [6] = test system: MDA-MB-231; experiment: Anti-proliferative activity, CellTiter-96 assay, MDA-MB-231; format: cell-based; settings: Homo sapiens, MDA-MB-231 cells, 72 hours incubation
# Method: as §2, §3
# [7] = test system: COLO205; experiment: Anti-proliferative activity, CellTiter-96 assay, COLO205; format: cell-based; settings: Homo sapiens, COLO 205, COLO205 cells, 72 hours incubation
# Method: as §2, §3
# Sequence of B-Raf (P15056 whole entry): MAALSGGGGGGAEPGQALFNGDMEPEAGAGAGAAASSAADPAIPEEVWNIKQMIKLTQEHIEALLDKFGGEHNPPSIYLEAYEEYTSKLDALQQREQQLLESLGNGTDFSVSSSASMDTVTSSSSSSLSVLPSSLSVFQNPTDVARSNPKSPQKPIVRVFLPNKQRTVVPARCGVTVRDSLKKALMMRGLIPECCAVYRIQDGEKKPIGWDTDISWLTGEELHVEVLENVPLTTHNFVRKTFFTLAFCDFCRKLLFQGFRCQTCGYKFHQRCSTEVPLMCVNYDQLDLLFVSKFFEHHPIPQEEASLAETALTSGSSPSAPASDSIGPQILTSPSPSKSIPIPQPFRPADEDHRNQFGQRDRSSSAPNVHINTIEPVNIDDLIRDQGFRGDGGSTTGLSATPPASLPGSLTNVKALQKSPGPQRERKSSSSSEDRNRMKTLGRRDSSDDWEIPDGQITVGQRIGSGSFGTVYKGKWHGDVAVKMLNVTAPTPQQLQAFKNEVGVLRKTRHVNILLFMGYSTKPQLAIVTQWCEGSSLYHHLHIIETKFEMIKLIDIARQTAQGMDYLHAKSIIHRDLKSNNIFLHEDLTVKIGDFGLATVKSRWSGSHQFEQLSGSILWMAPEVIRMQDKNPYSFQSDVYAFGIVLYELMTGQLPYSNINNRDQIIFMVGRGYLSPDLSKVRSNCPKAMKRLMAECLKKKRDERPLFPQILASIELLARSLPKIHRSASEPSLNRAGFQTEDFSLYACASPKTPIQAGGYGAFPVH
# Sequence of B-Raf (V600E) (P15056 whole entry V600E): as the sequence (P15056 whole entry) above, with V600E counted along it
# Sequence of C-Raf (P04049 whole entry): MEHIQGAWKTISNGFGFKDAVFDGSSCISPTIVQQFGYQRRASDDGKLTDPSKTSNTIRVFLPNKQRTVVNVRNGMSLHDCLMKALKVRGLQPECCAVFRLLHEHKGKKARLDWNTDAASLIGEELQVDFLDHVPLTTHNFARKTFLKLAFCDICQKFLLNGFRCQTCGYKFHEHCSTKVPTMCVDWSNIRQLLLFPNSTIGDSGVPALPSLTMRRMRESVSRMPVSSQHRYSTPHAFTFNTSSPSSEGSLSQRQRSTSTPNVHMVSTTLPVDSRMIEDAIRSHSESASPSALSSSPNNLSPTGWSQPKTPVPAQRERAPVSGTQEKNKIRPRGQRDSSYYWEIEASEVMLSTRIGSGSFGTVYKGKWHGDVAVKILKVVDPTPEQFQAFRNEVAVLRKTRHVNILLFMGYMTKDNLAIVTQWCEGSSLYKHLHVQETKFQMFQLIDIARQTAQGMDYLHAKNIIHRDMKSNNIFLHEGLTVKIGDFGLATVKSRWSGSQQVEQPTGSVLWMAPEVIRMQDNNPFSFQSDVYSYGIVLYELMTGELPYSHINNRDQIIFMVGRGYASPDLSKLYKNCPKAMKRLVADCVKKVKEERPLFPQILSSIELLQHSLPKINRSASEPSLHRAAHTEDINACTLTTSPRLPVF
Compound,IC50 [1],inhibition at 1 µM [1],IC50 [2],IC50 [3],IC50 [4],IC50 [5],IC50 [6],IC50 [7]
"COc1cc(-c2ccc3ncnc(Nc4cccc5[nH]ncc45)c3c2)ccc1O [Compound 51, 4-(4-(1H-indazol-4-ylamino)quinazolin-6-yl)-2-methoxyphenol]",121 nM,86%,157 nM,404 nM,1600 ± 300 nM,1400 ± 100 nM,1600 ± 400 nM,7700 ± 300 nM
"COc1cc(-c2ccc3ncnc(Nc4cc(O)ccc4Cl)c3c2)ccc1O [Compound 59, 4-(4-(2-chloro-5-hydroxyphenylamino)quinazolin-6-yl)-2-methoxyphenol]",36.5 nM,92.6%,64.7 nM,290 nM,600 ± 300 nM,700 ± 100 nM,900 ± 200 nM,4500 ± 600 nM
"COc1cc(-c2ccc3ncnc(Nc4cccc(O)c4Cl)c3c2)ccc1O [Compound 60, 2-chloro-3-(6-(4-hydroxy-3-methoxyphenyl)quinazolin-4-ylamino)phenol]",39 nM,91%,56.5 nM,152 nM,1300 ± 200 nM,1300 ± 300 nM,1700 ± 500 nM,6800 ± 160 nM
"COc1cc(-c2ccc3ncnc(Nc4cc(O)c(Cl)cc4Cl)c3c2)ccc1O [Compound 61, 2,4-dichloro-5-(6-(4-hydroxy-3-methoxyphenyl)quinazolin-4-ylamino)phenol]",40.1 nM,92.6%,59.9 nM,284 nM,1600 ± 400 nM,1900 ± 500 nM,2900 ± 400 nM,7400 ± 1900 nM
"Oc1ccc(-c2ccc3ncnc(Nc4cccc(O)c4)c3c2)cc1 [Compound 62, 3-(6-(4-hydroxyphenyl)quinazolin-4-ylamino)phenol]",32.5 nM,93.8%,60.1 nM,335 nM,3700 ± 1600 nM,2600 ± 100 nM,7200 ± 1400 nM,11700 ± 2500 nM
"Oc1cccc(Nc2ncnc3ccc(-c4cccc(O)c4)cc23)c1 [Compound 63, 3-(6-(3-hydroxyphenyl)quinazolin-4-ylamino)phenol]",27.7 nM,93.4%,51.7 nM,300 nM,5300 ± 1000 nM,2300 ± 600 nM,9500 ± 1300 nM,7100 ± 1300 nM
"COc1ccc(-c2ccc3ncnc(Nc4cccc(O)c4)c3c2)cc1 [Compound 64, 3-(6-(4-methoxyphenyl)quinazolin-4-ylamino)phenol]",62.4 nM,91.9%,105 nM,1230 nM,11000 ± 3300 nM,6000 ± 300 nM,15600 ± 800 nM,17300 ± 1900 nM
"COc1cc2ncnc(Nc3cccc(O)c3)c2cc1-c1ccc(N)cc1 [Compound 68, 3-(6-(4-aminophenyl)-7-methoxyquinazolin-4-ylamino)phenol]",55.8 nM,83.7%,76.6 nM,860 nM,7000 ± 2400 nM,4900 ± 1700 nM,11500 ± 3800 nM,15700 ± 4100 nM
"COc1cccc(-c2ccc3ncnc(Nc4cccc5[nH]ncc45)c3c2)c1F [Compound 74, 6-(2-fluoro-3-methoxyphenyl)-N-(1H-indazol-4-yl)quinazolin-4-amine]",114 nM,91.2%,139 nM,751 nM,> 50000 nM,> 50000 nM,> 50000 nM,> 50000 nM
"COc1ccc(-c2ccc3ncnc(Nc4cccc5[nH]ncc45)c3c2)cc1F [Compound 75, 6-(3-fluoro-4-methoxyphenyl)-N-(1H-indazol-4-yl)quinazolin-4-amine]",157 nM,85%,221 nM,672 nM,9600 ± 1200 nM,11100 ± 800 nM,11600 ± 1700 nM,18500 ± 1100 nM

# Next, values leading:
IC50 [1],inhibition at 1 µM [1],IC50 [2],IC50 [3],IC50 [4],IC50 [5],IC50 [6],IC50 [7],Compound
172 nM,83.1%,195 nM,757 nM,8900 ± 1300 nM,11500 ± 1900 nM,14800 ± 500 nM,11500 ± 1300 nM,"COc1cc(-c2ccc3ncnc(Nc4cccc5[nH]ncc45)c3c2)ccc1F [Compound 84, 6-(4-fluoro-3-methoxyphenyl)-N-(1H-indazol-4-yl)quinazolin-4-amine]"
174 nM,83%,209 nM,495 nM,14200 ± 800 nM,11400 ± 3000 nM,23200 ± 2000 nM,15900 ± 4100 nM,"Fc1ccc(-c2ccc3ncnc(Nc4cccc5[nH]ncc45)c3c2)cc1F [Compound 85, 6-(3,4-difluorophenyl)-N-(1H-indazol-4-yl)quinazolin-4-amine]"
141 nM,86.1%,161 nM,568 nM,14200 ± 2400 nM,7700 ± 400 nM,12600 ± 1800 nM,13000 ± 2400 nM,"c1cc(Nc2ncnc3ccc(-c4ccc5c(c4)OCO5)cc23)c2cn[nH]c2c1 [Compound 96, 6-(benzo[d][1,3]dioxol-5-yl)-N-(1H-indazol-4-yl)quinazolin-4-amine]"
112 nM,86.6%,151 nM,584 nM,> 50000 nM,24500 ± 7100 nM,12700 ± 2000 nM,12700 ± 2100 nM,"NC(=O)c1cccc(-c2ccc3ncnc(Nc4cccc5[nH]ncc45)c3c2)c1 [Compound 97, 3-(4-(1H-indazol-4-ylamino)quinazolin-6-yl)benzamide]"
73.9 nM,92.5%,105 nM,338 nM,12700 ± 5300 nM,7200 ± 600 nM,9600 ± 1600 nM,9600 ± 1600 nM,"COc1ccc(-c2ccc3ncnc(Nc4cccc5[nH]ncc45)c3c2)cc1C=O [Compound 98, 5-(4-(1H-indazol-4-ylamino)quinazolin-6-yl)-2-methoxybenzaldehyde]"
21 nM,95.8%,23 nM,136 nM,1780 ± 200 nM,1400 ± 400 nM,5500 ± 500 nM,5200 ± 200 nM,"COc1cc(-c2ccc3nccc(Nc4cccc(O)c4)c3c2)ccc1O [Compound 100, 4-(4-(3-hydroxyphenylamino)quinolin-6-yl)-2-methoxyphenol]"
18.1 nM,97.1%,20.9 nM,96.1 nM,6700 ± 100 nM,2300 ± 300 nM,21100 ± 3800 nM,21100 ± 3800 nM,"COc1cc(-c2ccc3nccc(Nc4cc(O)ccc4F)c3c2)ccc1O [Compound 101, 4-(4-(2-fluoro-5-hydroxyphenylamino)quinolin-6-yl)-2-methoxyphenol]"
134 nM,87%,199 nM,294 nM,> 50000 nM,> 50000 nM,> 50000 nM,> 50000 nM,"N#Cc1cccc(-c2ccc3ncnc(Nc4cccc5[nH]ncc45)c3c2)c1 [Compound 102, 3-(4-(1H-indazol-4-ylamino)quinazolin-6-yl)benzonitrile]"
164 nM,85.2%,211 nM,354 nM,3200 nM,6600 nM,4000 ± 200 nM,8900 nM,"COc1cc(-c2ccc3nccc(Nc4cccc5[nH]ncc45)c3c2)ccc1O [Compound 103, 4-(4-(1H-indazol-4-ylamino)quinolin-6-yl)-2-methoxyphenol]"
126 nM,85.1%,164 nM,521 nM,16900 ± 600 nM,14200 ± 1000 nM,10100 ± 1100 nM,13600 ± 1500 nM,"CCCS(=O)(=O)Nc1cccc(-c2ccc3ncnc(Nc4cccc5[nH]ncc45)c3c2)c1 [Compound 109, N-(3-(4-(1H-indazol-4-ylamino)quinazolin-6-yl)phenyl)propane-1-sulfonamide]"
83.4 nM,89.1%,99.9 nM,290 nM,25100 ± 7100 nM,36300 ± 1700 nM,26500 ± 7300 nM,32300 ± 8500 nM,"COc1cccc(-c2ccc3nccc(Nc4cccc5[nH]ncc45)c3c2)c1F [Compound 111, 6-(2-fluoro-3-methoxyphenyl)-N-(1H-indazol-4-yl)quinolin-4-amine]"
99.2 nM,82.3%,123 nM,287 nM,4800 ± 1600 nM,6300 ± 700 nM,6200 ± 600 nM,2600 ± 400 nM,"N#Cc1cccc(-c2ccc3nccc(Nc4cccc5[nH]ncc45)c3c2)c1 [Compound 114, 3-(4-(1H-indazol-4-ylamino)quinolin-6-yl)benzonitrile]"
